Consider one molecule from patent US20090018146A1, “Combination Therapy with Triterpenoid Compounds and Proteasome Inhibitors” (Research Development Corporation, priority 2005, published 2009).

Structures are written as SMILES.

The subject of assay [1] is Hsp70 transcript. In words: Northern blot of Hsp70 transcript in Jurkat cells. Type of assay: cell-based, human. An excerpt:
(§1) Total RNA from the control and avicin treated Jurkat T cells was made using Trizol (Invitrogen). Equal amounts of RNA were separated on form amide gels and transferred to nylon membranes (Hybond N+, Amersham) and UV cross-linked using UV Stratalinker (Stratagene). Staining the membranes with 0.03% methylene blue solution in 0.3% sodium acetate, pH 5.2, monitored equal loading. The DNA probes for Hsp70 and Hsp90 were purchased from StressGen as pUC plasmids and used according to the manufacturer's protocol. The DNA fragments were radiolabeled using a Nick Translation kit from Gibco BRL and [^32P] dCTP (Amersham). The membranes were exposed for autoradiography after hybridization using ExpressHyb (Clontech) solution at 58° C. for 1 hour and 5 washes, each of 20 minutes, with 5× SSC containing 0.1% SDS at 50° C.

The subject of assay [2] is E3α ubiquitin ligase. As to the kind of experiment: Western blot of E3α ubiquitin ligase in Jurkat cells. It counts as cell-based, human. To be noted: peak at one hour of treatment. On the procedure:
(§2) Jurkat T cells (2 μg/ml=1 μM), U-937 (4 μg/ml), MJ (5 μg/ml), and HH cells (2.5 μg/ml) were treated for 0-24 hours with the indicated concentrations of avicin D. PBLs from the patients or normal blood were treated with 5 μg/ml of avicin D for 24 hours.
(§3) At the end of treatments, cells were harvested, washed with sterile ice-cold PBS and cytoplasmic extracts (CE) were prepared by lysing the cells in CE buffer containing 10 mM Hepes-Cl pH 7.5, 10 mM KCl, 0.1 mM EDTA, 0.1 mM EGTA, 0.3% NP40, and a protease inhibitor cocktail (Sigma). After centrifugation and separating the supernatant (CE proteins), the pellet was resuspended in a buffer containing 20 mM Hepes-Cl, 400 mM NaCl, 1 mM EDTA, 1 mM EGTA, and protease inhibitor cocktail (Sigma). The nuclear protein extraction proceeded for 30 min. on ice followed by centrifugation at 14,000 rpm for 5 min at 4° C. The clear supernatant containing nuclear proteins (NE) was collected, glycerol (10%) was added, and proteins stored at −80° C. until use.
(§4) SDS-PAGE and immunoblot procedures were essentially performed as described (Sambrook, 1989). […] Protein bands were detected using the ECL chemiluminescence kit from Amersham as per the manufacturer's protocol.
For orientation: A western blot detects proteins with antibodies after separation by electrophoresis.

For assay [3], the system named is Hsp70. As to the kind of experiment: Western blot of Hsp70 in primary PBL from Sezary syndrome patients. Type of assay: cell-based, human. To be noted: 5 μg/ml, 24 hours. On the procedure: as §2, §3, §4
(§5) Quantitation of proteins (western) and transcripts (RT-PCR) was performed using the NIH 1.61 image software.

The subject of assay [4] is Hsp90α, Hsc70, and Hsp60 transcripts. In words: One-step RT-PCR of Hsp90α, Hsc70 and Hsp60 transcripts in Jurkat cells. It counts as cell-based, human. On the procedure:
Total RNA purified using Trizol method (Invitrogen) was subjected to DNAseI (RNAase free, Sigma Chemical Co.) treatment to remove any residual DNA, followed by heat inactivation and addition of 1 mM EDTA. Absence of genomic DNA was confirmed by performing PCR using Taq DNA polymerase. About 50-100 ng of purified total RNA was used in a one-step RT-PCR reaction kit from Invitrogen in a Techne Genius machine. The samples were separated on 0.8% agarose-TBE gels and viewed by staining with ethidium bromide.
as §5

In assay [5] the test system is Hsp70. In words: Western blot of Hsp70 in leukemic/lymphoma cell-lines. Type of assay: cell-based, human. To be noted: Jurkat, U937, MJ-1, and HH cells, 24 hours post-treatment. On the procedure:
Human Jurkat T cell leukemia, monocytic U937 cells, and cutaneous T-cell lymphoma (CTCL) cell lines MJ (G11) and HH were obtained from American Type Culture Collection (Rockville, Md.) and grown in RPMI 1640 medium supplemented with 10% FBS and 2 mM glutamine.
as §2
At the end of treatments, cells were harvested, washed with sterile ice-cold PBS and cytoplasmic extracts (CE) were prepared by lysing the cells in CE buffer containing 10 mM Hepes-Cl pH 7.5, 10 mM KCl, 0.1 mM EDTA, 0.1 mM EGTA, 0.3% NP40, and a protease inhibitor cocktail (Sigma). After centrifugation and separating the supernatant (CE proteins), the pellet was resuspended in a buffer containing 20 mM Hepes-Cl, 400 mM NaCl, 1 mM EDTA, 1 mM EGTA, and protease inhibitor cocktail (Sigma). […]
as §4, §5

In assay [6] the test system is recombinant Hsp70. As to the kind of experiment: In vitro ubiquitination assay with recombinant Hsp70, his-ub and CE proteins of treated cells. Type of assay: biochemical, bovine. To be noted: cytoplasmic extracts of treated vs untreated Jurkat cells. On the procedure:
Ubiquitination assays were performed as described (Firestein and Feuerstein, 1998) with few modifications using recombinant bovine Hsp70 and N-terminal histidine-tagged ubiquitin (his-ub). About 0.5 μg of Hsp70 and 4 μg of his-ub were incubated in a buffer containing 50 mM Tris-Cl pH 7.5, 2.5 mM MgCl2, 0.05% NP 40, 0.5 mM DTT, 5 mM ATP, 4 μM MG132, and ATP regenerating system containing 10 mM creatine phosphate, 0.1 μg/ml of creatine kinase, and about 50 μg of CE proteins. The reaction was carried out for 1 hour at 30° C. and the products were subjected to nickel agarose chromatographic purification to purify histidine-tagged proteins as per manufacturer's protocol (Qiagen). The affinity-purified proteins were prepared for SDS-PAGE and western analysis using anti-Hsp70 antibodies.

Assay [7] relates to ubiquitin-protein conjugates. In words: Western blot of ubiquitin-protein conjugates in Jurkat cells. It counts as cell-based, human. To be noted: from around 2 hours. On the procedure:
as §2, §3, §4

Assay [8] deals with Hsp90. As to the kind of experiment: Western blot of Hsp90 protein in avicin D treated Jurkat cells. It counts as cell-based, human. To be noted: avicin D 1 μM, within one hour up to 4 hours, western blot vs untreated. On the procedure: as §2, §3, §4, §5
The subject of assay [9] is XIAP. In words: Western blot of XIAP in primary PBL from Sezary syndrome patients. Type of assay: cell-based, human. To be noted: 5 μg/ml, 24 hours. On the procedure:
as §2, §3, §4, §5

Assay [10] concerns HSF1. As to the kind of experiment: Western blot of HSF1 in cytoplasmic and nuclear extracts of Jurkat cells. Type of assay: cell-based, human. On the procedure: as §2, §3, §4, §5
Assay [11] concerns Hsp90 transcript. In words: Northern blot of Hsp90 transcript in Jurkat cells. Type of assay: cell-based, human.
Source text: as §1

Assay [12] has as its system CTCL cells. In words: Apoptosis in PBL from Sezary syndrome patients. Type of assay: cell-based, human. On the procedure:
as §2

In assay [13] the test system is CHIP. As to the kind of experiment: Western blot of CHIP in Jurkat cells. It counts as cell-based, human. To be noted: same conditions as E3α. On the procedure:
as §2, §3, §4

Assay [14] relates to his-ub-Hsp70. As to the kind of experiment: In vivo ubiquitination of Hsp70 in his-ub transfected Jurkat cells. Type of assay: cell-based, human. To be noted: his-ub transfected Jurkat cells, avicin D 1 μM, 2 and 4 hours, p<0.05. On the procedure: Jurkat T-cells were transfected with a plasmid pDG268 that expresses a fusion protein of histidine-tagged human ubiquitin and enhanced GFP. Transfection was performed using μm ax a Biosystems kit and their protocol. After 24 hours of transfection, cells were harvested, resuspended at a density of 10^6 cells/ml before treatment with lactacystin or avicin D.
Jurkat T cells transfected with the his-ub plasmid construct were treated with lactacystin (10 μM) or with avicin D (1 μM) for 4 hours. Cells were harvested and CE prepared as described above. […] The affinity purified histidine-tagged proteins were separated on SDS-PAGE and analyzed on western blots for ub-Hsp70 proteins.

Assay [15] relates to caspase 3. In words: Western blot of caspase 3 activation in Jurkat cells. It counts as cell-based, human. To be noted: 2-4 hours. On the procedure:
as §2, §3, §4

Assay [16] deals with Hsp27. As to the kind of experiment: Western blot of Hsp27 protein in avicin D treated Jurkat cells. To be noted: avicin D 1 μM, 2-4 hours. Type of assay: cell-based, human. On the procedure: as §2, §3, §4, §5

In the case of `C=C[C@](C)(O)CC/C=C(\CO)C(=O)O[C@H]1[C@H](O)[C@@H](O)[C@H](O[C@@](C)(C=C)CC/C=C(\CO)C(=O)O[C@H]2C[C@]3(C(=O)O[C@@H]4O[C@H](CO)[C@@H](O)[C@H](O)[C@H]4O[C@@H]4O[C@@H](C)[C@H](O[C@@H]5O[C@@H](CO)[C@H](O)[C@H]5O)[C@@H](O[C@@H]5O[C@H](CO)[C@@H](O)[C@H](O)[C@H]5O)[C@H]4O)[C@H](O)C[C@]4(C)C(=CC[C@@H]5[C@@]6(C)CC[C@H](O[C@@H]7O[C@H](CO[C@@H]8O[C@H](C)[C@H](O)[C@H](O)[C@H]8O[C@@H]8OC[C@@H](O)[C@H](O)[C@H]8O)[C@@H](O)[C@H](O)[C@H]7NC(C)=O)C(C)(C)[C@@H]6CC[C@]54C)[C@@H]3CC2(C)C)O[C@@H]1C` [avicin D], the “increase in Hsp70 transcript (Northern blot)” value in [1] is on record as about 1.4 fold. The E3α protein level result in assay [2] is reported as “dramatic increase”. For the same molecule, the “decrease in Hsp70 protein” value in assay [3] is recorded as 25-35%. Moreover, the “changes in the transcripts encoding Hsp90α, Hsc70, and Hsp60 (RT-PCR)” value in assay [4] is “marginal”. The Hsp70 protein level result in [5] was “significant decrease”. Moreover, the “in vitro ubiquitination of Hsp70 (his-ub-Hsp70 ladder)” value in [6] is given as “stronger ladder of his-ub-Hsp70”. For the same molecule, the “ubiquitin-protein conjugates in cell extracts” value in [7] is “protein conjugates observed”. Besides, the “protein levels of Hsp90” value in assay [8] is reported as “significant decrease”. The “decrease in XIAP protein” value in [9] is on record as 30-40%. For the same molecule, the “increase in the levels of nuclear HSF1” value in [10] (4 hours, nuclear extract, densitometric scanning) was about 1.5 fold. Moreover, the “cytoplasmic content of HSF1 protein” value in assay [10] (cytoplasmic extract) was “No apparent change”. For the same molecule, the “increase in Hsp90 transcript (Northern blot)” value in assay [11] was about 2 fold. In addition, in [12], the apoptosis entry is “caused apoptosis”. Besides, the “levels of CHIP” value in assay [13] is “No significant change”. Moreover, the “decrease in the levels of his-ub-Hsp70 protein band” value in assay [14] is 40%. The “caspase 3 activation” value in assay [15] was “caspase 3 activation”. Further, the “increase of Hsp27” value in assay [16] is given as 1.4 fold.
